This note sets out measurements from US20240279227A1, “FUSED HETEROCYCLIC DERIVATIVES” (Janssen Sciences Ireland Unlimited Company, priority 2021, published 2024).

Data set [1] relates to HBV. Nature of the data set: Anti-HBV activity in HepG2.117 cell line (intracellular HBV DNA, real-time PCR). It is filed as cell-based, hepatitis B virus. Conditions: HepG2.117 cells, HBV replication induced, 3 days of treatment, intracellular HBV DNA by real-time PCR. The procedure:
The anti HBV activity was measured using the HepG2.117 cell line, a stable, inducibly HBV producing cell line, which replicates HBV in the absence of doxycycline (Tet-off system). The HepG2 cell line is available from ATCCR under number HB-8065. Transfection of the HepG2 cell line can be as described in Sun and Nassal 2006 Journal of Hepatology 45 (2006) 636-645 “Stable HepG2-and Huh7-based human hepatoma cell lines for efficient regulated expression of infectious hepatitis B virus”.
For the antiviral assay, HBV replication was induced, followed by a treatment with serially diluted compound in 96-well plates. After 3 days of treatment, the antiviral activity was determined by quantification of intracellular HBV DNA using real-time PCR and an HBV specific primer set and probe.

Data set [2] can be described thus: Human liver microsome stability. It is filed as in vitro ADME. Conditions: human, pooled human liver microsomes, pH 7.4, pooled human liver microsomes 0.5 mg/mL, 1 μM compound, NADPH 1 mM, pH 7.4, 37° C., 0-60 min; read-out: HLM Metabolism t1/2. The protocol:
Pooled human liver microsomes (0.5 mg/mL) was pre-incubated with 1 μM test compounds or control compounds (verapamil, warfarin and cerivastatin) in 0.1 M phosphate buffer pH 7.4 containing 1 mM MgCl2 at 37° C. The final concentration of DMSO and acetonitrile are 0.05% and 0.2%, respectively. All incubations are performed singularly for each compound. NADPH was added to initiate the reaction with the final concentration of 1 mM and the final incubation volume of 400 μL.
At 6 time points (0, 5, 10, 20, 40 and 60 min) reactions were stopped by the removal of 50 μL of the incubation mixture into plates containing acetonitrile at a of 1:3 (v:v). The plates were centrifuged at 3000 rpm for 10 min at 4° C. to precipitate the protein. Following protein precipitation, the sample supernatants were combined in cassettes of up to 8 compounds. The internal standard was added (1:1 supernatant to internal standard solution) and samples were analyzed using standard LC-MS conditions.
From a plot of ln peak area ratio (compound peak area/internal standard peak area) against time, the gradient of the line is determined. Subsequently, half-life is calculated using the equations below: […]

A short description of data set [3]: Cytotoxicity, ATPlite Luminescence Assay. It is filed as cell-based, human. Particulars: human, HepG2 or HepG2.117 cells, 3-days incubation unless marked with *, ATPlite viability. The protocol:
Cytotoxicity of the compounds was tested using HepG2 or HepG2.117 cells, incubated for 3 or 4 days in the presence of compounds. The viability of the cells was assessed using the PERKIN ELMER ATPlite Luminescence Assay System.”

The mark [4] stands for this setting: Hepatitis B virus, HepG2.117, 72 h.

Some results are limits rather than exact numbers.

As to `CC(c1ccccn1)N1CCn2nc3c(c2C1=O)CN(C(=O)c1ccc(Cl)c(Cl)c1)[C@H](C)C3` (mixture of isomers) [Ref 3, reference compound], it took 0.072 µM to reach a half-maximal effect in data set [1] (setting [4]) (EC50). In addition, the half-life at 1 μM in data set [2] was 0.11 h.
Compound `CNC(=O)[C@@H]1CN(C(C)c2ccc(C)nn2)C(=O)c2c3c(nn21)C[C@@H](C)N(C(=O)c1ccc(Cl)c(Cl)c1)C3` (single isomer, unassigned) [Compound 1B, (3R,7S)-2-(3,4-Dichlorobenzoyl)-N,3-dimethyl-9-((S*)-1-(6-methylpyridazin-3-yl)ethyl)-10-oxo-1,2,3,4,7,8,9,10-octahydropyrido[4′,3′:3,4]pyrazolo[1,5-a]pyrazine-7-carboxamide] yielded a concentration for a half-maximal effect (EC50) in data set [1] (setting [4]) of 0.38 µM. In data set [3], this compound showed a 50% cytotoxic concentration (CC50) of more than 50 µM. Moreover, the half-life at 1 μM in data set [2] was more than 3 h.
Regarding `CNC(=O)[C@@H]1CN(C(C)c2ccc(-n3cncn3)cc2)C(=O)c2c3c(nn21)C[C@@H](C)N(C(=O)c1ccc(Cl)c(Cl)c1)C3` (single isomer, unassigned) [Compound 2A, (3R,7S)-9-((R*)-1-(4-(1H-1,2,4-triazol-1-yl)phenyl)ethyl)-2-(3,4-dichlorobenzoyl)-N,3-dimethyl-10-oxo-1,2,3,4,7,8,9,10-octahydropyrido[4′,3′:3,4]pyrazolo[1,5-a]pyrazine-7-carboxamide], the half-maximal effective concentration (EC50) in data set [1] was found to be 0.042 µM. In data set [3], this compound showed a CC50 of more than 50 µM. Also, the half-life at 1 μM in data set [2] was more than 3 h.
The compound `CNC(=O)[C@@H]1CN(C(C)c2ccc(C(C)(C)O)nc2)C(=O)c2c3c(nn21)C[C@@H](C)N(C(=O)c1ccc(Cl)c(Cl)c1)C3` (single isomer, unassigned) [Compound 3B, (3R,7S)-2-(3,4-Dichlorobenzoyl)-9-((S*)-1-(6-(2-hydroxypropan-2-yl)pyridin-3-yl)ethyl)-N,3-dimethyl-10-oxo-1,2,3,4,7,8,9,10-octahydropyrido[4′,3′:3,4]pyrazolo[1,5-a]pyrazine-7-carboxamide] registered an EC50 in data set [1] (setting [4]) of 0.051 µM. This compound also displayed a CC50 in data set [3] of more than 50 µM. In addition, in data set [2], the half-life at 1 μM was more than 3 h.
For `CNC(=O)[C@@H]1CN(C(C)c2ccc(C(C)(C)O)cc2)C(=O)c2c3c(nn21)C[C@@H](C)N(C(=O)c1ccc(Cl)c(Cl)c1)C3` (single isomer, unassigned) [Compound 5B, (3R,7S)-2-(3,4-Dichlorobenzoyl)-9-((S*)-1-(4-(2-hydroxypropan-2-yl)phenyl)ethyl)-N,3-dimethyl-10-oxo-1,2,3,4,7,8,9,10-octahydropyrido[4′,3′:3,4]pyrazolo[1,5-a]pyrazine-7-carboxamide], the EC50 in data set [1] (setting [4]) was found to be 0.019 µM. In data set [3], this compound registered a half-maximal cytotoxic concentration (CC50) of more than 50 µM. In addition, the half-life at 1 μM in data set [2] was found to be 1.44 h.
On to `CC(c1ccc(C(F)(F)F)nc1)N1C[C@@H](C(=O)N(C)C)n2nc3c(c2C1=O)CN(C(=O)c1ccc(Cl)c(Cl)c1)[C@H](C)C3` (single isomer, unassigned) [Compound 8B, (3R,7S)-2-(3,4-dichlorobenzoyl)-N,N,3-trimethyl-10-oxo-9-((S*)-1-(6-(trifluoromethyl)pyridin-3-yl)ethyl)-1,2,3,4,7,8,9,10-octahydropyrido[4′,3′:3,4]pyrazolo[1,5-a]pyrazine-7-carboxamide], for which the midpoint of the response in data set [1] (setting [4]), the EC50, lay at 0.071 µM. Moreover, in data set [3], the CC50 was more than 50 µM. In data set [2], the half-life at 1 μM was more than 3 h.
In data set [1] (setting [4]), `CNC(=O)[C@@H]1CN(C(C)c2ccnc(C(F)(F)F)c2)C(=O)c2c3c(nn21)C[C@@H](C)N(C(=O)c1ccc(Cl)c(Cl)c1)C3` (single isomer, unassigned) [Compound 9B, (3R,7S)-2-(3,4-Dichlorobenzoyl)-N,3-dimethyl-10-oxo-9-((S*)-1-(2-(trifluoromethyl)pyridin-4-yl)ethyl)-1,2,3,4,7,8,9,10-octahydropyrido[4′,3′:3,4]pyrazolo[1,5-a]pyrazine-7-carboxamide] registered an EC50 of 0.061 µM. For the same compound, the CC50 in data set [3] is more than 50 µM. In data set [2], the half-life at 1 μM is more than 3 h.
Compound `CNC(=O)[C@@H]1CN(C(C)c2ccc(C(F)(F)F)nc2)C(=O)c2c3c(nn21)C[C@@H](C)N(C(=O)c1ccc(Br)c(Cl)c1)C3` (single isomer, unassigned) [Compound 10B, (3R,7S)-2-(4-bromo-3-chlorobenzoyl)-N,3-dimethyl-10-oxo-9-((S*)-1-(6-(trifluoromethyl)pyridin-3-yl)ethyl)-1,2,3,4,7,8,9,10-octahydropyrido[4′,3′:3,4]pyrazolo[1,5-a]pyrazine-7-carboxamide] displayed an EC50 in data set [1] (setting [4]) of 0.019 µM. This compound yielded a CC50 in data set [3] of 46.8 µM. The half-life at 1 μM in data set [2] is more than 3 h.
In data set [1], `CC(c1ccc(OC(F)F)nc1)N1C[C@@H](C(N)=O)n2nc3c(c2C1=O)CN(C(=O)c1ccc(Cl)c(Cl)c1)[C@H](C)C3` (single isomer, unassigned) [Compound 12A, (3R,7S)-2-(3,4-Dichlorobenzoyl)-9-((R*)-1-(6-(difluoromethoxy)pyridin-3-yl)ethyl)-3-methyl-10-oxo-1,2,3,4,7,8,9,10-octahydropyrido[4′,3′:3,4]pyrazolo[1,5-a]pyrazine-7-carboxamide] gave a concentration giving a half-maximal response (EC50) of 0.059 µM. Further, half-maximal cytotoxicity in data set [3] (CC50) was put at 24.4 µM. Besides, the half-life at 1 μM in data set [2] is more than 3 h.
As for `CNC(=O)[C@@H]1CN(C(C)c2ccn(CC(F)(F)F)n2)C(=O)c2c3c(nn21)C[C@@H](C)N(C(=O)c1ccc(Cl)c(C(F)(F)F)c1)C3` (single isomer, unassigned) [Compound 14B, (3R,7S)-2-(4-chloro-3-(trifluoromethyl)benzoyl)-N,3-dimethyl-10-oxo-9-((S*)-1-(1-(2,2,2-trifluoroethyl)-1H-pyrazol-3-yl)ethyl)-1,2,3,4,7,8,9,10-octahydropyrido[4′,3′:3,4]pyrazolo[1,5-a]pyrazine-7-carboxamide], it took 0.031 µM to reach a half-maximal effect in data set [1] (setting [4]) (EC50). Also, the CC50 in data set [3] is more than 50 µM. Further, the half-life at 1 μM in data set [2] is more than 3 h.
In turn, `CNC(=O)[C@@H]1CN(C(C)c2ccc(S(C)(=O)=O)cc2)C(=O)c2c3c(nn21)C[C@@H](C)N(C(=O)c1ccc(Cl)c(C(F)(F)F)c1)C3` (single isomer, unassigned) [Compound 19A, (3R,7S)-2-(4-Chloro-3-(trifluoromethyl)benzoyl)-N,3-dimethyl-9-((R*)-1-(4-(methylsulfonyl)phenyl)ethyl)-10-oxo-1,2,3,4,7,8,9,10-octahydropyrido[4′,3′:3,4]pyrazolo[1,5-a]pyrazine-7-carboxamide] came in with an EC50 in data set [1] of 0.12 µM. In addition, in data set [3], the CC50 was more than 50 µM. Also, the half-life at 1 μM in data set [2] was more than 3 h.
The compound `CNC(=O)[C@@H]1CN(C(C)c2ccc(S(=O)(=O)C3CC3)cc2)C(=O)c2c3c(nn21)C[C@@H](C)N(C(=O)c1ccc(Cl)c(C(F)(F)F)c1)C3` (single isomer, unassigned) [Compound 20A, (3R,7S)-2-(4-Chloro-3-(trifluoromethyl)benzoyl)-9-((R*)-1-(4-(cyclopropylsulfonyl)phenyl)ethyl)-N,3-dimethyl-10-oxo-1,2,3,4,7,8,9,10-octahydropyrido[4′,3′:3,4]pyrazolo[1,5-a]pyrazine-7-carboxamide] yielded an EC50 in data set [1] of 0.089 µM. Besides, the cytotoxic concentration (CC50) in data set [3] was more than 50 µM. In data set [2], the half-life at 1 μM was more than 3 h.
As to `CCC(c1ccc(S(C)(=O)=O)cc1)N1C[C@@H](C(=O)NC)n2nc3c(c2C1=O)CN(C(=O)c1ccc(Cl)c(Cl)c1)[C@H](C)C3` (single isomer, unassigned) [Compound 22A, (3R,7S)-2-(3,4-Dichlorobenzoyl)-N,3-dimethyl-9-((R*)-1-(4-(methylsulfonyl)phenyl)propyl)-10-oxo-1,2,3,4,7,8,9,10-octahydropyrido[4′,3′:3,4]pyrazolo[1,5-a]pyrazine-7-carboxamide], in data set [1], a half-maximal response (EC50) required 0.27 µM. In data set [3], this compound yielded a CC50 of more than 50 µM. Further, the half-life at 1 μM in data set [2] was more than 3 h.
Consider `C[C@@H]1Cc2nn3c(c2CN1C(=O)c1ccc(Cl)c(Cl)c1)C(=O)N([C@H](C)c1ccc(C#N)cc1)CC3` [Ref 4, reference compound], for which the midpoint of the response in data set [1] (setting [4]), the EC50, lay at 0.076 µM. Moreover, the half-life at 1 μM in data set [2] was 0.225 h.
In the same order, the values of `C[C@@H]1Cc2nn3c(c2CN1C(=O)c1ccc(Cl)c(Cl)c1)C(=O)N([C@@H](C)c1ccc(C#N)cc1)CC3` [Ref 5, reference compound] are 0.022 µM and 0.132 h.
